Data reported in patent US20250223281A1, “ANTIDIABETIC COMPOUNDS AND COMPOSITIONS” (REZUBIO PHARMACEUTICALS CO., LTD, priority 2022, published 2025).

Target: T1, GPR40 (Homo sapiens, UniProt O14842)
T1 construct: expressed in transfected cells; host or cells: HEK293 cells stably expressing GPR40 (Hygromycin selection)
Assay: IP1 accumulation assay in HEK293 cells stably expressing GPR40
Type: cell-based
Protocol: IP1 accumulation assay was used to evaluate the potency of compounds. HEK293 cells stably expressing GPR40 were cultured in 5% CO2 incubator (ThermoFisher) in maintenance media (Dulbecco's modified Eagle's medium with 4.5 g/L of glucose, 10% fetal bovine serum, 100 μg/mL Hygromycin, and Penicillin (100 U/mL)/Streptomycin (100 μg/mL)) till 100% confluency. Cells were harvested freshly, spun down at 300×g for 5 min, and resuspended in pre-warmed 1× stimulant buffer from Cisbio IP-One HTRF Detection kit (Cisbio). Cell density was adjusted to 2.0×10^6 cells/mL. DMSO was used as blank control and AMG-1638 (CAS #: 1142214-62-7) as positive control. Compounds were prepared at 10 mM in DMSO and 5 nL of 3× serially diluted compounds (10 concentrations) were added to each well of the 384-LDV assay plate (Corning) by using ECHO 550 (Labcyte). Five μL of cells in suspension were transferred into each well by using Multidrop Combi Reagent Dispenser (ThermoFisher). Assay plate was then sealed and incubated at 37° C. for 2 hours. IP-d2 reagent and anti-IP1 reagent were prepared following the manual (Cisbio). Five μL of IP1-d2 and then 5 μL of anti-IP1 antibody was added to each well sequentially. Assay plate was incubated at room temperature for 60 min and then read at 665 nm/615 nm on an Envision plate reader (PerkinElmer). The ratio of values obtained at 665 nm and 615 nm was used for calculation of IP1 accumulation: % Effect=(Ratiosample−Ratioblank)/(RatioAMG-1638−Ratioblank)×100. Dose curve was fitted and EC50 of each compound was calculated by using XLFit.

[1] = IP1 accumulation, HEK293 cells stably expressing GPR40, 2 hours at 37° C., % effect relative to AMG-1638, table of Biological Example 1
[2] = Tables A-1a to A-7b (structure-property relationship), obtained by methods of Biological Example 1

T1 sequence (O14842 whole entry): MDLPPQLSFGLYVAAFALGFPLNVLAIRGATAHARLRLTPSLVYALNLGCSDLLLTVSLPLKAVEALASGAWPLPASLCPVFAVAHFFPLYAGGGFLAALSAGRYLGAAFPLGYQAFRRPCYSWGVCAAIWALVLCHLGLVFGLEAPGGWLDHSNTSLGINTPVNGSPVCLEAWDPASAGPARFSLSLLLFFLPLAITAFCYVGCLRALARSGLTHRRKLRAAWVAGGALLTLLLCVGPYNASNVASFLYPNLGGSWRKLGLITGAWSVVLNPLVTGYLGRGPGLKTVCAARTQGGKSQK

| EC50 [1] [nM] | EC50 [2] [nM] | Structure (SMILES) |
| --- | --- | --- |
| 2.2 |  | COc1ccc(F)c(-c2ccc(COc3cccc([C@@H](CC(=O)O)C4CC4)c3)cc2CC(C)(C)Cn2cc(CCCCCCCCCCCCCCCCCC(=O)NCCCN(CC(=O)O)CC(=O)O)nn2)c1 [Example 81] |
| > 10000 | > 10000 | C[C@H](C(=O)O)[C@H](c1ccc2c(c1)O[C@@H](C1CCN(Cc3cc(-c4cn(CCCCCCCCCC(=O)NCC[N+](C)(CCC(=O)NCCN)CCC(=O)NCCN)nn4)ccc3OC(F)(F)F)CC1)CC2)C1CC1 [Example 82] |
| 651 | 650 | C[C@H](C(=O)O)[C@H](c1ccc2c(c1)O[C@@H](C1CCN(Cc3cc(-c4cn(CCCCCCCCCCCC(=O)NCC[N+](C)(CCC(=O)NCCN)CCC(=O)NCCN)nn4)ccc3OC(F)(F)F)CC1)CC2)C1CC1 [Example 83] |
| 0.74 | 0.74 | C[C@H](C(=O)O)[C@H](c1ccc2c(c1)O[C@@H](C1CCN(Cc3cc(-c4cn(CCCCCCCCCCCCCCCC(=O)NCC[N+](C)(CCC(=O)NCCN)CCC(=O)NCCN)nn4)ccc3OC(F)(F)F)CC1)CC2)C1CC1 [Example 84] |
| > 1300 |  | CCCCCOC(=O)CCCCCCCCCCCCCCCCCc1cn(CC(C)(C)Cc2cc(COc3cccc([C@@H](CC(=O)O)C4CC4)c3)ccc2-c2cc(OC)ccc2F)nn1 [Example 85] |
| 195 | 195 | C[C@H](C(=O)O)[C@H](c1ccc2c(c1)O[C@@H](C1CCN(Cc3cc(-n4cc(CCCCCCCCCCC(=O)NCC[N+](C)(CCC(=O)NCCN)CCC(=O)NCCN)nn4)ccc3OC(F)(F)F)CC1)CC2)C1CC1 [Example 86] |
| > 2700 |  | COc1ccc(F)c(-c2ccc(COc3cccc([C@@H](CC(=O)O)C4CC4)c3)cc2C(C)(C)c2cn(CCCCCCCCCCCC(=O)NCC[N+](C)(CCC(=O)NCCN)CCC(=O)NCCN)nn2)c1 [Example 87] |
| 22.8 |  | COc1ccc(F)c(-c2ccc(COc3cccc([C@@H](CC(=O)O)C4CC4)c3)cc2OC(C)(C)Cn2cc(CCCCCCCCCCCCCC(=O)NCCN(CCC(=O)NCCN)CCC(=O)NCCN)nn2)c1 [Example 88] |
| 2.19 | 2.19 | COc1ccc(F)c(-c2ccc(COc3cccc([C@@H](CC(=O)O)C4CC4)c3)cc2CC(C)(C)Cc2cn(CCCCCCCCCCCCCCCC(=O)NCCN(CCC(=O)NCCN)CCC(=O)NCCN)nn2)c1 [Example 89] |
| 2.6 | 2.6 | COc1ccc(F)c(-c2ccc(COc3cccc([C@@H](CC(=O)O)C4CC4)c3)cc2CC(C)(C)Cc2cn(CCCCCCCCCCCCCCCC(=O)NCC[N+](C)(CCC(=O)NCCN)CCC(=O)NCCN)nn2)c1 [Example 90] |
| 1.52 |  | COc1ccc(F)c(-c2ccc(COc3cccc([C@@H](CC(=O)O)C4CC4)c3)cc2CC(C)(C)Cc2cn(CCCCCCCCCCCCCCCCCC(=O)NCC[N+](C)(C)CCCS(=O)(=O)O)nn2)c1 [Example 91] |
| 212 | 212 | COc1ccc(F)c(-c2ccc(COc3cccc([C@@H](CC(=O)O)C4CC4)c3)cc2CC(C)(C)Cc2cn(CCCCCCCCCCCC(=O)NCCN(CCC(=O)NCCN)CCC(=O)NCCN)nn2)c1 [Example 92] |
| 4.58 |  | COc1ccc(F)c(-c2ccc(COc3cccc([C@@H](CC(=O)O)C4CC4)c3)cc2CC(C)(C)Cn2cc(CCCCCCCCCCCCCCCCCC(=O)NCCC[N+](C)(CC(=O)O)CC(=O)O)nn2)c1 [Example 93] |
| 1950 | 1950 | COc1ccc(F)c(-c2ccc(COc3cccc([C@@H](CC(=O)O)C4CC4)c3)cc2CC(C)(C)Cn2cc(CCCCCCC(=O)NCCN(CCC(=O)NCCN)CCC(=O)NCCN)nn2)c1 [Example 94] |
| > 10000 | > 10000 | COc1ccc(F)c(-c2ccc(COc3cccc([C@@H](CC(=O)O)C4CC4)c3)cc2CC(C)(C)Cn2cc(CCCCCCC(=O)NCC[N+](C)(CCC(=O)NCCN)CCC(=O)NCCN)nn2)c1 [Example 95] |
| 1050 | 1050 | COc1ccc(F)c(-c2ccc(COc3cccc([C@@H](CC(=O)O)C4CC4)c3)cc2CC(C)(C)Cc2cn(CCCCCCCCCC(=O)NCC[N+](C)(CCC(=O)NCCN)CCC(=O)NCCN)nn2)c1 [Example 96] |
| 328 | 328 | COc1ccc(F)c(-c2ccc(COc3cccc([C@@H](CC(=O)O)C4CC4)c3)cc2CC(C)(C)Cc2cn(CCCCCCCCCCCC(=O)NCC[N+](C)(CCC(=O)NCCN)CCC(=O)NCCN)nn2)c1 [Example 97] |

More lines, now with the values behind:

| Structure (SMILES) | EC50 [1] [nM] | EC50 [2] [nM] |
| --- | --- | --- |
| COc1ccc(C(=O)N(CC(C)(C)CCCCCCCCCCCCCCCCCCCC(=O)NCC[N+](C)(CC(=O)NCCN)CC(=O)NCCN)c2cccc(C)n2)c(N2CCC(COc3cc([C@@H](CC(=O)O)C4CC4)ccn3)CC2)c1 [Example 67] | 0.38 |  |
| COc1ccc(C(=O)N(CC(C)(C)CCCCCCn2cc(CCCCCCCCCCC(=O)NCCN(CCC(=O)NCCN)CCC(=O)NCCN)nn2)c2cccc(C)n2)c(N2CCC(COc3cc([C@@H](CC(=O)O)C4CC4)ccn3)CC2)c1 [Example 68] | 1 | 1.79 |
| C[C@H](C(=O)O)[C@H](c1ccc2c(c1)O[C@@H](C1CCN(Cc3cc(-n4cc(CCCCCCCCCCCCCCCCCC(=O)NCC[N+](C)(C)C)nn4)ccc3OC(F)(F)F)CC1)CC2)C1CC1 [Example 70] | 0.43 |  |
| C[C@H](C(=O)O)[C@H](c1ccc2c(c1)O[C@@H](C1CCN(Cc3cc(-n4cc(CCCCCCCCCCCCCCC(=O)NCC[N+](C)(CCC(=O)NCCN)CCC(=O)NCCN)nn4)ccc3OC(F)(F)F)CC1)CC2)C1CC1 [Example 72] | 6.74 | 6.74 |
| COc1ccc(C(=O)N(CC(C)(C)CCCCCCn2cc(CCCCCCCCCCCCCCCCCC(=O)NCC[N+](C)(C)CCCS(=O)(=O)[O-])nn2)c2cccc(C)n2)c(N2CCC(COc3cc([C@@H](CC(=O)O)C4CC4)ccn3)CC2)c1 [Example 73] | 0.1 |  |
| COc1ccc(C(=O)N(CC(C)(C)CCCCCCn2cc(CCCCCCCCCCC(=O)NCCN(CCC(=O)NCCN)CCC(=O)NCCN)nn2)c2cccc(C)n2)c(N2CCC(COc3cc([C@@H](CC(=O)O)C4CC4)ccn3)CC2)c1 [Example 74] | 2.99 | 2.99 |
| COc1ccc(C(=O)N(CC(C)(C)CCCCCCn2cc(CCCCCCCCC(=O)NCCN(CCC(=O)NCCN)CCC(=O)NCCN)nn2)c2cccc(C)n2)c(N2CCC(COc3cc([C@@H](CC(=O)O)C4CC4)ccn3)CC2)c1 [Example 75] | 0.75 | 1.92 |
| CCCCCNC(=O)CCCCCCCCCCCCCCCCCc1cn(CC(C)(C)Cc2cc(COc3cccc([C@@H](CC(=O)O)C4CC4)c3)ccc2-c2cc(OC)ccc2F)nn1 [Example 76] | 112 |  |
| C[C@H](C(=O)O)[C@H](c1ccc2c(c1)O[C@@H](C1CCN(Cc3cc(-c4cn(CCCCCCCCCC(=O)NCCN(CCC(=O)NCCN)CCC(=O)NCCN)nn4)ccc3OC(F)(F)F)CC1)CC2)C1CC1 [Example 77] | 8400 | > 10000 |
| C[C@H](C(=O)O)[C@H](c1ccc2c(c1)O[C@@H](C1CCN(Cc3cc(-n4cc(CCCCCCCCCCCCCC(=O)NCCN(CCC(=O)NCCN)CCC(=O)NCCN)nn4)ccc3OC(F)(F)F)CC1)CC2)C1CC1 [Example 78] | 1.4 | 1.4 |
| C[C@H](C(=O)O)[C@H](c1ccc2c(c1)O[C@@H](C1CCN(Cc3cc(-n4cc(CCCCCCCCCCC(=O)NCCN(CCC(=O)NCCN)CCC(=O)NCCN)nn4)ccc3OC(F)(F)F)CC1)CC2)C1CC1 [Example 79] | 183 | 183 |
| C[C@H](C(=O)O)[C@H](c1ccc2c(c1)O[C@@H](C1CCN(Cc3cc(-n4cc(CCCCCCCCC(=O)NCCN(CCC(=O)NCCN)CCC(=O)NCCN)nn4)ccc3OC(F)(F)F)CC1)CC2)C1CC1 [Example 80] | > 5000 | > 5000 |
